Common to all, as to test: growth of human tumour cells (NCI), 48 h
In assay [1] the test system is OVCAR-8.
Assay [2] deals with SNB-75.
In assay [3] the test system is NCI-H226.
The test system of assay [4] is KM12.
The test system of assay [5] is HCT-116.
The test system of assay [6] is EKVX.
The test system of assay [7] is SW-620.
Assay [8] deals with RXF 393.
Assay [9] relates to A549.
Assay [10] has as its system TK-10.
The subject of assay [11] is SNB-19.
The subject of assay [12] is LOX IMVI.
Assay [13] has as its system SF-295.
Assay [14] concerns ACHN.
In assay [15] the test system is SK-MEL-2.
Assay [16] deals with K562.
For assay [17], the system named is A498.
In assay [18] the test system is NCI-H522.
Assay [19] has as its system SR.

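Five compound concentrations were applied to cells in 96-well plates for 48 hours; endpoints were derived by simple linear interpolation of the resulting dose-response curve. The concentration for 50% growth inhibition is given as GI50.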 Activity calls are given as the source filed them. Cut-off read from the data, not from the text of the source: active = GI50 up to about 1.1 µM and inactive = higher.

Experimental findings from ChEMBL document CHEMBL1201862, “PubChem BioAssay data set” (2004) are described below.

For `NC(=S)N/N=C(/CC(=O)c1ccc([N+](=O)[O-])cc1)C(=O)Nc1ncc([N+](=O)[O-])s1`, the GI50 in assay [1], in [2], in assay [3], in assay [4], in assay [5] and in assay [6] was > 100 µM (inactive) in each case. The GI50 is > 100 µM (inactive) in assay [7]; > 100 µM (inactive) in assay [8]; > 100 µM (inactive) in assay [9]; > 100 µM (inactive) in assay [10]; > 100 µM (inactive) in assay [11]; 61.7 µM (inactive) in assay [12]. Further, the GI50 in [13], in assay [14] and in [15] was > 100 µM (inactive) in each case.
On to `CC(C(=O)c1ccc(Cl)cc1)/C(=N/NC(=O)NN)C(=O)Nc1cccc(C(F)(F)F)c1` (stereo not drawn), for which the GI50 in assay [1], in assay [16], in [2], in assay [3], in assay [5] and in assay [6] was > 100 µM (inactive) throughout. The GI50 in assay [7] was > 100 µM (inactive); in [8] it was 22.8 µM (inactive); in [9] it was > 100 µM (inactive); in [10], > 100 µM (inactive); in assay [11], > 100 µM (inactive); in assay [12] it was > 100 µM (inactive). The GI50 in [13], in [17], in assay [14] and in assay [15] was > 100 µM (inactive) in each case.
With `COc1ccc(CCCN2c3ccccc3Sc3ccccc32)cc1`, the GI50 in assay [1] is > 100 µM (inactive); in [16], 17.3 µM (inactive); in assay [2], > 100 µM (inactive); in [3] it was > 100 µM (inactive); in assay [4] it was > 100 µM (inactive); in assay [18] it was 33.1 µM (inactive). Moreover, the GI50 in [5] was 36.3 µM (inactive); in assay [6], > 100 µM (inactive); in assay [7], 22.8 µM (inactive); in assay [8], > 100 µM (inactive); in [9] it was > 100 µM (inactive); in assay [10] it was > 100 µM (inactive). Further, the GI50 in assay [11] is > 100 µM (inactive); in [12], 52.8 µM (inactive); in assay [13] it was > 100 µM (inactive); in assay [17], > 100 µM (inactive); in assay [14], > 100 µM (inactive); in assay [15] it was > 100 µM (inactive).
With `CC1=C(C(=O)Nc2ccc([N+](=O)[O-])cc2)C(c2ccco2)C(C(=O)Nc2ccc([N+](=O)[O-])cc2)=C(C)N1`, the GI50 in assay [1] was 26.9 µM (inactive); in assay [16] it was 6.37 µM (inactive); in assay [2], 2.72 µM (inactive); in assay [3], 19.1 µM (inactive); in [4], 6.41 µM (inactive); in assay [18] it was 12.4 µM (inactive). The GI50 in assay [6] was 3.63 µM (inactive); in [7] it was 24.4 µM (inactive); in assay [8], 4.61 µM (inactive); in [9] it was 18.1 µM (inactive); in assay [10], 12.3 µM (inactive); in assay [11], 27.1 µM (inactive). Also, the GI50 in assay [12] was 19.6 µM (inactive); in assay [13], 28.1 µM (inactive); in assay [17], 10.5 µM (inactive); in assay [14] it was 4.4 µM (inactive); in [15], 7.52 µM (inactive).
On to `CC(C(=O)Oc1ccc2ccccc2c1-c1c(O)ccc2ccccc12)c1ccccc1` (stereo not drawn), for which the GI50 was 18.8 µM (inactive) in assay [1]; 15 µM (inactive) in [16]; 9.79 µM (inactive) in [2]; 10.1 µM (inactive) in [3]; 11.4 µM (inactive) in [4]; > 10 µM (inactive) in [18]. In addition, the GI50 in assay [5] is 12.9 µM (inactive); in assay [6], 16.8 µM (inactive); in assay [7] it was 15.2 µM (inactive); in assay [8], 11 µM (inactive); in [9] it was 13.6 µM (inactive); in assay [10], 17.6 µM (inactive). For the same molecule, the GI50 in [11] was 14.7 µM (inactive); in assay [13] it was 12.7 µM (inactive); in assay [17], 15.9 µM (inactive); in [14] it was 13.7 µM (inactive); in [15], 15.1 µM (inactive).
Regarding `O=C1C2=C(c3ccccc31)C(c1cccc(Cl)c1)NC(S)=N2` (stereo not drawn), the GI50 was 96.4 µM (inactive) in assay [1]; > 100 µM (inactive) in assay [16]; 31.9 µM (inactive) in [2]; 44.2 µM (inactive) in [3]; 45.9 µM (inactive) in assay [4]; > 100 µM (inactive) in [18]. In addition, the GI50 in assay [5], in assay [6], in [7], in assay [9], in assay [10] and in [11] was > 100 µM (inactive) each time. Moreover, the GI50 was > 100 µM (inactive) in assay [13], > 100 µM (inactive) in assay [17], 68.1 µM (inactive) in assay [14] and > 100 µM (inactive) in assay [15].
Regarding `COC(=O)CC(=O)NCC1=CCC(=O)CC1`, the GI50 in assay [1], in assay [16], in assay [2], in assay [4], in assay [18] and in assay [5] was > 100 µM (inactive) in each case. For the same molecule, the GI50 in assay [6], in assay [7], in assay [8], in assay [9], in [10] and in assay [11] was > 100 µM (inactive) in each case. Besides, the GI50 in [12], in assay [13], in assay [17] and in assay [15] was > 100 µM (inactive) in each case.
As for `CC(C)N(C(=O)C1(C)CC1)C(C)C`, the GI50 in assay [1], in assay [16], in [2], in assay [3], in [4] and in assay [18] was > 100 µM (inactive) in each case. Further, the GI50 in assay [5], in [6], in assay [7], in assay [8], in [9] and in [11] was > 100 µM (inactive) throughout. The GI50 in assay [13], in assay [17], in assay [14] and in assay [15] was > 100 µM (inactive) in each case.
As to `CC(=O)C1C(=O)NC(=O)C1=O` (stereo not drawn), the GI50 in [1], in assay [16], in assay [2], in [3], in [4] and in assay [18] was > 100 µM (inactive) in each case. The GI50 in assay [5] was > 100 µM (inactive); in assay [6], > 100 µM (inactive); in assay [7], 29.2 µM (inactive); in assay [8], > 100 µM (inactive); in assay [10], > 100 µM (inactive); in [11] it was > 100 µM (inactive). The GI50 in assay [12], in assay [13], in assay [17], in [14] and in assay [15] was > 100 µM (inactive) in each case.
With `CC1=C[C@H]2C[C@@]3(C)O[C@@H]([C@]4(C)CC[C@H]([C@@H](C)C(=O)O)OO4)CC3C(C)(C)[C@H]2CC1` (stereo partly drawn), the GI50 in assay [1] was 1.45 µM (inactive); in assay [2], 1.08 µM (active); in [3], 2.01 µM (inactive); in assay [4], 0.397 µM (active); in assay [18], 0.331 µM (active); in assay [5], 2.16 µM (inactive). Moreover, the GI50 was 1.87 µM (inactive) in assay [6]; 0.259 µM (active) in [7]; 1.25 µM (inactive) in [8]; 1.88 µM (inactive) in [9]; 2.79 µM (inactive) in [10]; 1.79 µM (inactive) in assay [11]. The GI50 was 0.161 µM (active) in assay [12], 2.01 µM (inactive) in [13], 1.57 µM (inactive) in assay [14] and 1.71 µM (inactive) in assay [15].
Turning to `C[P+](C)(C)C`, the GI50 in assay [1], in [16], in assay [2], in [3], in assay [4] and in assay [5] was > 100 µM (inactive) throughout. The GI50 in assay [6], in assay [7], in [8], in [9], in [10] and in assay [11] was > 100 µM (inactive) throughout. Further, the GI50 in assay [19], in [12], in assay [13], in assay [14] and in assay [15] was > 100 µM (inactive) in each case.
As for `O=S(=O)(O)c1ccc2c(/N=N/c3ccc(Cl)cc3)c(O)ccc2c1`, the GI50 in [1], in assay [16], in assay [2], in assay [4], in assay [18] and in assay [5] was > 100 µM (inactive) each time. In addition, the GI50 in [6], in assay [7], in assay [8], in assay [9], in assay [10] and in assay [11] was > 100 µM (inactive) each time. Also, the GI50 in assay [12], in [13], in assay [17], in assay [14] and in assay [15] was > 100 µM (inactive) throughout.
